From patent US20100311708A1, “USE OF NOR-BILE ACIDS IN THE TREATMENT OF ARTERIOSCLEROSIS” (priority 2007, published 2010)

Key:
Type in all cases: in vivo
ApoE−/− mice [1] = assay: Treatment of ApoE−/− mice with nor-UDCA in comparison to UDCA (Experiment 3); conditions: for % plaques in the aortic arch (plaque area versus total area, en-face red oil): FIG. 12; for plaques in red-oil stained aortic valve cross-sections (histological analysis): FIG. 13 top
Source text: (§1) ApoE-deficient mice as described in Experiment 1 were used.
ApoE−/− mice (n=15) were fed with normal diet for 8 weeks post natum, followed by western chow diet (“high fat diet”) for another 8 weeks. The mice were then segregated into three groups with each group comprising five mice. In the control group, the mice were further fed with the western chow diet for additional four weeks. In the second group, the ApoE−/− mice were fed with a western chow diet comprising 0.5% w/w nor-UDCA for additional four weeks. Finally, in the third group, the ApoE−/− mice were fed with a western chow diet comprising 0.5% w/w UDCA for additional four weeks. Considering a food intake of 4 g/day of chow per mouse, this corresponds to 20 mg/day of nor-UDCA or UDCA, respectively, per mouse.
The experimental setup is depicted in FIG. 6.

ApoE−/− mice [2] = assay: Prevention of atherosclerosis in ApoE−/− mice by nor-UDCA in comparison to UDCA (Experiment 4); conditions: prevention study, 0.5% w/w in western chow diet for 12 weeks
Source text: as §1
ApoE−/− mice (n=15) were fed with normal diet for 8 weeks post natum and then segregated into three groups with each group comprising five mice. In the control group, the mice were fed with the western chow diet for additional 12 weeks. In the second group, the ApoE−/− mice were fed with a western chow diet comprising 0.5% w/w nor-UDCA for additional 12 weeks. Finally, in the third group, the ApoE−/− mice were fed with a western chow diet comprising 0.5% w/w UDCA for additional 12 weeks. Considering a food intake of 4 g/day of chow per mouse, this corresponds to 20 mg/day of nor-UDCA or UDCA, respectively, per mouse.
Thus, in this experimental prevention setup, the mice are fed with diet known to force atherosclerotic plaque formation together with either UDCA or nor-UDCA (mice of the second and third group) having preventive effects on the plaque formation. When compared to a control fed with western chow diet only, the preventive effects can be studied.
The experimental setup is depicted in FIG. 14(a).

ApoE−/− mice [3] = assay: Treatment of ApoE−/− mice with nor-UDCA (Experiment 1); conditions: 0.5% w/w in western chow diet for 4 weeks after 8 weeks western chow diet, vs control
Protocol: In order to study the effects of nor-UDCA on atherosclerosis, ApoE-deficient mice were treated. To this end ApoE−/− mice as described in Piedrahita et. al. (PNAS, 1992, 89, 4471-4475) which carry the Apoe^tm1Unc mutation were back-crossed 10 times into the C57BL76J. ApoE-deficient mice can also be obtained from the Jackson Laboratory (Maine, US) with the strain name B6.129P2.-Apoe^tm1Unc/J(http://jaxmice.jax.org).
ApoE−/− mice (n=10) were fed with normal diet for 8 weeks post natum, followed by western chow diet for another 8 weeks. The western chow diet consists of 21% by weight fat, 1.5% by weight cholesterol and no cholic acid (“high fat diet”).
This type of western chow diet is known to force atherosclerotic plaque formation on the indicated time line in ApoE−/− mice. After eight weeks of being fed with western chow diet, the mice were segregated into two groups with each group comprising five mice. In the control group A, the mice were further fed with the western chow diet for additional four weeks. In the other group B, the ApoE−/− mice were fed with a western chow diet comprising 0.5% w/w nor-UDCA for additional four weeks. Considering a food intake of 4 g/day of chow per mouse, this corresponds to 20 mg/day of nor-UDCA per mouse.
The experimental setup is depicted in FIG. 1.

LDLR−/− mice = assay: Treatment of LDLR−/− mice with nor-UDCA (Experiment 2); conditions: 0.5% w/w in western chow diet for 4 weeks after 8 weeks western chow diet; vs control; FIG. 5
Source text: In a second experiment (FIGS. 4 and 5), the effect of nor-UDCA in LDLR−/− mice that were raised on a western chow diet was investigated.
As for the ApoE-deficient mice, the LDLR-deficient mice are considered to be a bona-fide animal model of atherosclerosis development. If these mice are raised on a western chow diet they evolve typical symptoms of atherosclerosis involving atherosclerotic plaque formation in the aorta (FIG. 5).
LDLR−/− mice were produced as described in Ishebashi et. al. (J. Clin. Jnnvest., 1993, 92, 883-893). The 129-derived AB1 ES cell line was used. The strain was backcrossed to C57BL/6J mice for 10 generations. Ldlr^tm1Her/Ldlr^tm1Her involves: 129S7/SvEvBrd*C57BL/6. LDLR-deficient mice can also be obtained from the Jackson Laboratory (Maine, US) with the strain name B6.129S7-Ldlr^tm1Her/J (http://jaxmice.jax.org).
As in Experiment 1, ten mice being deficient in LDLR were raised on normal diet during the first 8 weeks post natum followed by the western chow diet for another eight weeks. Afterwards, the ten mice were separated into two groups for which the control group A received further feeding on a western chow diet for 4 weeks. In the test group B, the western chow diet of the following 4 weeks was supplemented with 0.5% w/w nor-UDCA. Considering a food intake of 4 g/day of chow per mouse, this corresponds to 20 mg/day of nor-UDCA per mouse. […]

[4] = treatment study, 0.5% w/w in western chow diet for 4 weeks

C[C@H](CCC(=O)O)[C@H]1CC[C@H]2[C@@H]3[C@@H](O)C[C@@H]4C[C@H](O)CC[C@]4(C)[C@H]3CC[C@]12C [UDCA, reference compound]
% plaques in the aortic arch (plaque area versus total area, en-face red oil) (ApoE−/− mice [1]; [4]): decreasing the percent of plaques
plaques in red-oil stained aortic valve cross-sections (histological analysis) (ApoE−/− mice [1]; [4]): the amount of plaques is reduced
weight of the brown adipose tissue (ApoE−/− mice [2]; FIG. 18): neither UDCA nor nor-UDCA had an influence

C[C@H](CC(=O)O)[C@H]1CC[C@H]2[C@@H]3[C@@H](O)C[C@@H]4C[C@H](O)CC[C@]4(C)[C@H]3CC[C@]12C [nor-UDCA, 24-nor[3α,7β-dihydroxy-5β-cholan-23-oic] acid]
arteriosclerotic plaques in red-oil stained aorta cross-sections (histological analysis) (ApoE−/− mice [3]; 20 weeks post natum, FIG. 2): significantly reduced extent of these plaques
sclerotic area versus the aorta area (morphometric analysis) (ApoE−/− mice [3]; FIG. 3): significantly smaller
extent and size of atherosclerotic plaque, aorta en-face stained with red oil (LDLR−/− mice): significantly reduced
number of hepatic neutrophil granulocytes (CD11b-positive cells in liver) (ApoE−/− mice [1]; 0.5% w/w in western chow diet for 4 weeks after 8 weeks western chow diet, FIG. 7): clearly reduced
expression level of p-JNK in liver tissue (Western blot) (ApoE−/− mice [1]; 0.5% w/w in western chow diet for 4 weeks after 8 weeks western chow diet, FIG. 8): capable of downregulating the expression of p-JNK
% plaques in the aortic arch (plaque area versus total area, en-face red oil) (ApoE−/− mice [1]; [4]): decreasing the percent of plaques
aortic valve plaque area versus total surface area (plaques in % of the surface area) (ApoE−/− mice [1]; treatment study, 0.5% w/w in western chow diet for 4 weeks, FIG. 13 quantification): significant reduction of said % plaques
plaques in red-oil stained aortic valve cross-sections (histological analysis) (ApoE−/− mice [1]; [4]): the amount of plaques is reduced
hepatic triglyceride levels (ApoE−/− mice [1]; treatment study, 0.5% w/w in western chow diet for 4 weeks, compared to control or UDCA-treated mice, FIG. 9): capable of significantly reducing the triglyceride-amount in the liver
serum transaminase (alanin-amino-transferase) levels (ApoE−/− mice [1]; treatment study, 0.5% w/w in western chow diet for 4 weeks, compared to control, FIG. 10): trend of reducing the serum transaminase levels
total serum cholesterol levels (ApoE−/− mice [1]; treatment study, 0.5% w/w in western chow diet for 4 weeks, compared to control, FIG. 11): seems to be capable of lowering the total cholesterol
hepatic triglyceride amounts, liver preparations stained with oil-red (histology) (ApoE−/− mice [2]; FIG. 15 a-c): hepatic triglyceride amounts are decreased
total serum cholesterol levels (ApoE−/− mice [2]; FIG. 17): does not seem to reduce serum cholesterol levels
weight of the brown adipose tissue (ApoE−/− mice [2]; FIG. 18): neither UDCA nor nor-UDCA had an influence
extent and size of atherosclerotic plaques, aorta en-face stained with red oil (ApoE−/− mice [2]; FIG. 19): significantly reduced
serum transaminase (alanin-amino-transferase) levels (ApoE−/− mice [2]; compared to control and UDCA, FIG. 16): significantly reduces the serum transaminase levels
amount (weight) of white adipose tissue (ApoE−/− mice [2]; compared to control or UDCA-treated mice, FIG. 18): strong reduction of the amount of white adipose tissue
hepatic triglyceride levels (quantification in liver homogenate) (ApoE−/− mice [2]; compared to control or UDCA-treated mice, FIG. 15 d): capable of significantly reducing the triglyceride-amount in the liver
sclerotic area versus the total aorta area (morphometric analysis) (ApoE−/− mice [2]; vs control, FIG. 20): significantly smaller
